Assay results as given in patent publication US20240391923A1, “METHIONINE ADENOSYLTRANSFERASE 2A INHIBITOR FOR TREATING MTAP DELETION-TYPE CANCER” (SUZHOU GENHOUSE BIO CO., LTD., priority 2022, published 2024).
Read-outs that look alike come from different tables or passages of the source.

Assays:
[1] = test system: SDMA in HCT116-MTAP-knockout cell line; test: Cell symmetric dimethylarginine (SDMA) test, In-cell Western, HCT116-MTAP-knockout; type: cell-based; settings: Homo sapiens, 96 h
[2] = biological target: MAT2A recombinant protein (Homo sapiens, UniProt P31153); test: MAT2A inhibitory activity (malachite green colorimetric enzyme assay); type: biochemical
Method in brief: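 Compounds tested over 10 points, 3-fold dilutions, top final concentration 1000 nM. Enzyme reaction: MAT2A, L-methionine, ATP, room temperature, 60 min, in HEPES pH 7.5 buffer with KCl, MgCl2 and DTT; inorganic phosphate read colorimetrically (malachite green, A630). Inhibition vs log concentration fitted for IC50.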

DOHH-2 cell strain = test: Tumor cell proliferation inhibition assay (CellTiter-Glo), DOHH-2; type: cell-based; settings: Homo sapiens, 120 h, DOHH-2 cells, 5-day treatment
Description: (§1) After the HCT116-MTAP-knockout (−/−) cell strain, the HCT116-MTAP wild-type(+/+)-cell strain, the DOHH-2 cell strain, or the Hut-78 cell strain was treated with the test compound for 5 days, the ATP level was measured using a CellTiter-Glo kit of Promega to evaluate the inhibition of the test compound against the growth of the tumor cell strain.
(§2) In the present application, the HCT116-MTAP-knockout (−/−) cell strain, the HCT116-MTAP wild-type (+/+)-cell strain, the DOHH-2 cell strain, or the Hut-78 cell strain was seeded into a 96-well cell culture plate at an appropriate cell density. After 24 h, the cells were treated using the test compounds diluted 1:3 fold at the highest concentration of 10 μM for 10 gradients, and a DMSO treatment group was set up separately. The cells were cultured in a 37° C./5% CO2 incubator for 5 days.

[3] = test system: HCT116-MTAP-knockout (−/−) cell strain; test: Tumor cell proliferation inhibition assay (CellTiter-Glo), HCT116-MTAP-knockout (-/-); type: cell-based; settings: Homo sapiens, 120 h, HCT116-MTAP-knockout (−/−) cells, 5-day treatment
Method in brief: (§3)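 Read-out: CellTiter-Glo ATP luminescence after 5-day compound exposure at 37° C./5% CO2. Dosing began 24 h post-seeding, 10 μM top, 1:3 dilutions, 10 points; DMSO-treated cells as reference.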

[4] = test system: SDMA in human colon cancer cell line HCT116; test: Cell symmetric dimethylarginine (SDMA) test, In-cell Western, HCT116 (MTAP wild-type); type: cell-based
Method in brief: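 SDMA level, an indirect readout of cellular MAT2A inhibition, measured by In-cell Western as background-subtracted 800/700 nm signal against DRAQ5. Cells exposed 4 days to six 1:4-diluted doses from 6 μM; inhibition relative to DMSO, IC50 from sigmoidal fit.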

[5] = test system: HCT116-MTAP wild-type (+/+)-cell strain; test: Tumor cell proliferation inhibition assay (CellTiter-Glo), HCT116-MTAP wild-type (+/+); type: cell-based; settings: Homo sapiens, 120 h, HCT116-MTAP wild-type (+/+) cells, 5-day treatment
Method in brief: as §3

[6] = Pharmacokinetic test in mice (IV and PO); type: in vivo; settings: mouse, plasma, BALB/c mice; for half-life: read-out: T½ (converted); for Vd: read-out: Vz
Hut-78 cell strain = test: Tumor cell proliferation inhibition assay (CellTiter-Glo), Hut-78; type: cell-based; settings: Hut-78 cells, 5-day treatment
Description: as §1, §2

[7] = IC50 score class, read-out: Cell 96 h SDMA Inhibition (HCT116-MTAP−/−) (score)
[8] = read-out: Cell 96 h SDMA Inhibition (HCT116-MTAP−/−)
[9] = IC50 score class, read-out: MAT2A Inhibition (score)
[10] = IC50 score, read-out: Tumor cell 5-day relative growth inhibition (DOHH-2) (nM), score
[11] = IC50 value, read-out: Tumor cell 5-day relative growth inhibition (DOHH-2)
[12] = IC50 score, read-out: Tumor cell 5-day relative growth inhibition (HCT116-MTAP−/−) (nM), score
[13] = IC50 value, read-out: Tumor cell 5-day relative growth inhibition (HCT116-MTAP−/−)
[14] = Homo sapiens, HCT-116, 96 h, IC50 score class, read-out: Cell 96 h SDMA Inhibition (HCT116-MTAP+/+) (score)
[15] = Homo sapiens, HCT-116, 96 h, read-out: Cell 96 h SDMA inhibition (HCT116-MTAP+/+)
[16] = IC50 score, read-out: Tumor cell 5-day relative growth inhibition (HCT116-MTAP+/+) (nM), score
[17] = IC50 value, read-out: Tumor cell 5-day relative growth inhibition (HCT116-MTAP+/+)
[18] = Homo sapiens, HuT78, 120 h, IC50 score, read-out: Tumor cell 5-day relative growth inhibition (Hut-78) (nM), score
[19] = Homo sapiens, HuT78, 120 h, IC50 value, read-out: Tumor cell 5-day relative growth inhibition (Hut-78)
[20] = IC50 score, read-out: Tumor cell 5-day relative growth inhibition (Hut-78) (nM), score
[21] = IC50 value, read-out: Tumor cell 5-day relative growth inhibition (Hut-78)

Sequence of MAT2A recombinant protein (P31153 whole entry): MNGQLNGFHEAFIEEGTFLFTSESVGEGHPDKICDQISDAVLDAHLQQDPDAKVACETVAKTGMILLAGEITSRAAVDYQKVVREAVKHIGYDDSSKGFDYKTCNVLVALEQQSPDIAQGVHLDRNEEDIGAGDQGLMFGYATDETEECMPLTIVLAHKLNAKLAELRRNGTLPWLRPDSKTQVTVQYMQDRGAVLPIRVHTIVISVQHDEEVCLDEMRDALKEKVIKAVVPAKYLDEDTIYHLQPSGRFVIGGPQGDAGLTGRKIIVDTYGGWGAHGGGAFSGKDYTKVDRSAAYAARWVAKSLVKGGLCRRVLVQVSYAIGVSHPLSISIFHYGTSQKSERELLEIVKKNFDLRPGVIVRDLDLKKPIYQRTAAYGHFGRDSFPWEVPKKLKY

IC50 [1, 7]	IC50 [1, 8]	IC50 [2, 9]	IC50 ([2]; read-out: MAT2A Inhibition)	IC50 (DOHH-2 cell strain; [10])	IC50 (DOHH-2 cell strain; [11])	IC50 [4, 14]	IC50 [4, 15]	SMILES	also measured
< 200 nM	188 nM	< 100 nM	17.2 nM	500 to 2000 nM	979 nM	1000 to 3000 nM	2790 nM	O=c1c2[nH]ncc2c2ccc(Cl)cc2n1-c1cccnc1 [Compound B13]	IC50 [3, 12]: < 500 nM; IC50 [3, 13]: 282 nM; IC50 [5, 16]: 500 to 2000 nM; IC50 [5, 17]: 928 nM
1000 to 3000 nM		< 100 nM	66.9 nM	≥ 2000 nM	6680 nM	1000 to 3000 nM		CCn1cc2c(n1)c(=O)n(-c1cncc(F)c1)c1cc(Cl)ccc21 [Compound B14]	
< 200 nM	63.6 nM	< 100 nM	26.8 nM	500 to 2000 nM	811 nM	200 to 1000 nM	636 nM	Cc1c2c(nn1C)c(=O)n(-c1cccnc1)c1cc(Cl)ccc21 [Compound B16]	
< 200 nM	51.5 nM	< 100 nM	24 nM	< 500 nM	396 nM	200 to 1000 nM	635 nM	CCn1nc2c(=O)n(-c3cccnc3)c3cc(Cl)ccc3c2c1C [Compound B17]	AUC ([6]; IV 2 mg/kg): 3.46 µM·h; clearance ([6]; IV 2 mg/kg): 27.7 mL/min/kg; bioavailability ([6]; IV 2 mg/kg, PO 10 mg/kg): 127%; half-life ([6]; IV 2 mg/kg): 14.4 min; Vd ([6]; IV 2 mg/kg): 0.6 L/kg; AUC ([6]; PO 10 mg/kg): 22.5 µM·h; half-life ([6]; PO 10 mg/kg): 28.2 min
200 to 1000 nM	521 nM	< 100 nM	37.2 nM	≥ 2000 nM	2360 nM	> 3000 nM	5150 nM	CCn1nc2c(=O)n(-c3cccnc3)c3cc(Cl)ccc3c2c1Cl [Compound B20]	
1000 to 3000 nM	1280 nM	< 100 nM	77 nM	≥ 2000 nM	11700 nM	> 3000 nM	> 3000 nM	Cn1nc2c(=O)n(-c3cccnc3)c3cc(Cl)ccc3c2c1C(F)F [Compound B27]	
< 200 nM	90.4 nM	< 100 nM	18.5 nM	500 to 2000 nM	719 nM	200 to 1000 nM	599 nM	CCn1cc2c(n1)c(=O)n(-c1cccnc1)c1nc(C(F)(F)F)ccc21 [Compound B29]	IC50 [3, 12]: < 500 nM; IC50 [3, 13]: 154 nM; AUC ([6]; IV 2 mg/kg): 1.86 µM·h; clearance ([6]; IV 2 mg/kg): 46.7 mL/min/kg; bioavailability ([6]; IV 2 mg/kg, PO 10 mg/kg): 95%; half-life ([6]; IV 2 mg/kg): 18 min; Vd ([6]; IV 2 mg/kg): 1.3 L/kg; AUC ([6]; PO 10 mg/kg): 9.32 µM·h; half-life ([6]; PO 10 mg/kg): 25.8 min; IC50 [5, 16]: < 500 nM; IC50 [5, 17]: 437 nM
< 200 nM	7.6 nM	< 100 nM	32.7 nM	< 500 nM	400 nM	200 to 1000 nM	230 nM	CCn1cc2c(n1)c(=O)n(-c1cccnc1C)c1cc(Cl)ccc21 [Compound B30]	IC50 (Hut-78 cell strain; [18]): < 500 nM; IC50 (Hut-78 cell strain; [19]): 33.1 nM
< 200 nM	169 nM	< 100 nM	65.3 nM	≥ 2000 nM	8080 nM	200 to 1000 nM	971 nM	CCn1cc2c(n1)c(=O)n(-c1c(C)ccnc1C)c1cc(Cl)ccc21 [Compound B31]	
< 200 nM	53.9 nM	< 100 nM	43.5 nM	≥ 2000 nM	2700 nM	1000 to 3000 nM	2260 nM	CCn1cc2c(n1)c(=O)n(-c1cccnc1C(F)(F)F)c1cc(Cl)ccc21 [Compound B32]	
200 to 1000 nM	586 nM			≥ 2000 nM	3790 nM	1000 to 3000 nM	1530 nM	CC(C)n1cc2c(n1)c(=O)n(-c1cccnc1)c1cc(Cl)ccc21 [Compound B39]	IC50 (Hut-78 cell strain; [18]): < 500 nM; IC50 (Hut-78 cell strain; [19]): 98.6 nM
200 to 1000 nM	376 nM			≥ 2000 nM	2400 nM	> 3000 nM	4470 nM	O=c1c2nn(CC(F)F)cc2c2ccc(Cl)cc2n1-c1cccnc1 [Compound B40]	IC50 (Hut-78 cell strain; [18]): 500 to 2000 nM; IC50 (Hut-78 cell strain; [19]): 1290 nM
< 200 nM	132 nM	< 100 nM	27.4 nM	≥ 2000 nM	2020 nM	> 3000 nM	3220 nM	COCCn1cc2c(n1)c(=O)n(-c1cccnc1)c1cc(Cl)ccc21 [Compound B45]	
< 200 nM	154 nM	< 100 nM	29.7 nM	500 to 2000 nM	1670 nM	> 3000 nM	47000 nM	O=c1c2nn(Cc3cccnc3)cc2c2ccc(Cl)cc2n1-c1cccnc1 [Compound B47]	IC50 (Hut-78 cell strain; [18]): < 500 nM; IC50 (Hut-78 cell strain; [19]): 200 nM
> 3000 nM	8520 nM	< 100 nM	40.8 nM	≥ 2000 nM	7690 nM	> 3000 nM	> 10000 nM	CCn1cc2c(n1)c(=O)n(-c1cnccc1C)c1cc(Cl)ccc21 [Compound B51]	
200 to 1000 nM	579 nM	< 100 nM	54.3 nM	≥ 2000 nM	2040 nM	> 3000 nM	> 3000 nM	Cn1cc2c(n1)c(=O)n(-c1ccc3cn[nH]c3c1)c1cc(Cl)ccc21 [Compound B57]	IC50 (Hut-78 cell strain; [18]): ≥ 2000 nM; IC50 (Hut-78 cell strain; [19]): 2130 nM
		< 100 nM	34.1 nM	< 500 nM	62.9 nM			Cc1ncccc1-n1c(=O)c2nn(C)cc2c2ccc(Cl)cc21 [Compound B65]	IC50 (Hut-78 cell strain; [20]): < 500 nM; IC50 (Hut-78 cell strain; [21]): 23.8 nM; IC50 ([4]; 96 h, IC50 score class, read-out: Cell 96 h SDMA Inhibition (HCT116-MTAP+/+) (score)): < 200 nM; IC50 ([4]; 96 h, read-out: Cell 96 h SDMA inhibition (HCT116-MTAP+/+)): 191 nM
< 200 nM	109 nM	< 100 nM	28 nM	500 to 2000 nM	1150 nM	1000 to 3000 nM	1470 nM	Cn1cc2c(n1)c(=O)n(-c1cccnc1)c1cc(C(F)(F)F)ccc21 [Compound B69]	
< 200 nM	19.3 nM	< 100 nM	44.3 nM	< 500 nM	340 nM	200 to 1000 nM	261 nM	Cc1ncccc1-n1c(=O)c2nn(C)cc2c2ccc(C3CC3)cc21 [Compound B74]	
< 200 nM	10 nM			< 500 nM	82 nM	200 to 1000 nM	216 nM	Cc1ncccc1-n1c(=O)c2nn(C)cc2c2ccc(C(F)(F)F)nc21 [Compound B76]	IC50 (Hut-78 cell strain; [20]): < 500 nM; IC50 (Hut-78 cell strain; [21]): 10.6 nM
